# Measured values from patent US10016515B2, “DMA, a bis-benzimidazole, confers radioprotection to the intestine via Akt/NFκB dual pathway activation” (Jawaharlal Nehru University, priority 2016, dated 2018).
# What was measured:
# Format in all cases: cell-based, human
# [1] = test system: NFκB Δp65− A549 and scramble A549 cells; assay: Clonogenicity assay of NFκB p65 knockdown A549 cells
# Description: 0.8-1×10^6 A549 cells were seeded with media containing 8 μg/ml polybrene. Cells were infected with 0.5 ml lentivirus in fresh media containing polybrene and were incubated for next 24 h. Desired cells were selected against puromycin. NFκB p65 protein knockdown was checked by western blot after 3 days of selection media.
# Exponentially growing scrambled and NFκB p65 knockdown A549 cells were treated with 50 μM DMA for 2 h and irradiated with 0, 2, 4, 6 and 8 Gy of radiation dose for clonogenic survival assay. % Radioprotection was calculated by following formula % of Protection in radiation treated cells=(SF(Δp65−)+DMA/SF(Δp65−))×100 where SF is survival fraction in respective conditions.
# HEK293 cells = assay: Cytotoxicity by MTT assay
# Description: (§1) Exponentially growing HEK293, MRC5 and A549 cells were plated at cell densities 3000 cells per well in 96-well tissue culture plates. […] Cytotoxicity was measured by MTT assay according to the manufacturer's instructions (Promega, Madison, Wis., USA).
# [2] = Cytotoxicity by MTT assay; details: human
# Description: as §1
# A549 cells = assay: Cytotoxicity by MTT assay
# Description: as §1
# MRC5 cells = assay: Cytotoxicity by MTT assay
# Description: as §1
smiles,measurement,setting,value
"COc1ccc(-c2nc3cc(-c4nc5cc(N6CCN(C)CC6)ccc5[nH]4)ccc3[nH]2)cc1OC [DMA, 5-(4-methylpiperazin-1-yl)-2-[2′-(3,4-dimethoxyphenyl)-5′-benzimidazolyl]benzimidazole]",DMF,"[1]; NFκB Δp65− A549, 50 μM DMA 2 h",1.02
same,DMF,"[1]; scrambled sequence transfected A549, 50 μM DMA 2 h",1.28
same,Concentration at which DMA was cytotoxic,HEK293 cells; HEK293,50 µM
same,IC50 at short term incubation,"HEK293 cells; HEK293, 50 μM DMA, 2 h",no observable IC50
same,IC50 at short term treatment,"HEK293 cells; HEK293, DMA for 2 h",no observable IC50
same,IC50,"[2]; A549 cells, A549, 1-100 μM, up to 72 h",> 100 µM
same,IC50 at 24 h,"[2]; MRC5 cells, MRC-5 cells, 24 h",92.5 µM
same,IC50 at short term incubation,"A549 cells; A549, 50 μM DMA, 2 h",no observable IC50
same,IC50 (cytotoxicity),"A549 cells; A549, 1-100 μM, up to 72 h",could not be achieved
same,IC50 at short term treatment,"A549 cells; A549, DMA at 509 μM for 2 h",no observable IC50
same,IC50 at short term incubation,"MRC5 cells; MRC5, 50 μM DMA, 2 h",no observable IC50
same,IC50 at short term treatment,"MRC5 cells; MRC5, DMA at 509 μM for 2 h",no observable IC50
